# From ChEMBL document CHEMBL1136352, “Synthesis of 2-fluoronoraristeromycin and its inhibitory activity against Plasmodium falciparum S-adenosyl-L-homocysteine hydrolase” (Bioorg Med Chem Lett, 2003)
# Experiments:
# Adenosylhomocysteinase [1] = biological target: Adenosylhomocysteinase (Homo sapiens, UniProt P23526); experiment: Inhibitory activity against human S-adenosyl-L-homocysteine hydrolase
# Plasmodium falciparum = experiment: Inhibitory activity against Plasmodium falciparum; assay type: functional, organism-based
# Adenosylhomocysteinase [2] = biological target: Adenosylhomocysteinase (Plasmodium falciparum 3D7, UniProt P50250); experiment: Inhibitory activity against Plasmodium falciparum S-adenosyl-L-homocysteine hydrolase
# FM3A = experiment: Inhibitory activity against mammalian FM3A cell; assay type: functional, cell-based; details: Mus musculus
# Adenosylhomocysteinase (Homo sapiens, UniProt P23526), sequence (P23526 whole entry): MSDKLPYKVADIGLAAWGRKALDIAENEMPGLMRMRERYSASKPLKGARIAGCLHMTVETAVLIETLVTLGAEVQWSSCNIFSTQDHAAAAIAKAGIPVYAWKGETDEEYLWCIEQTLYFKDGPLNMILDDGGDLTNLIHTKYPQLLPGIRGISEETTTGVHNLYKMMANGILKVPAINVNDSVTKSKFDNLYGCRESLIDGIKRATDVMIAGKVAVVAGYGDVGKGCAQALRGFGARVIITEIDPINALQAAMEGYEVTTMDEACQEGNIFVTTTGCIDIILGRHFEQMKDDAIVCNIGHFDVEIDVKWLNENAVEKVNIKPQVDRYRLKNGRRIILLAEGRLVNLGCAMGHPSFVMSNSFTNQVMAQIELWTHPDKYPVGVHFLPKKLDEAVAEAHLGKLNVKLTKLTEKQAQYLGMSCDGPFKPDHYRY
# Adenosylhomocysteinase (Plasmodium falciparum 3D7, UniProt P50250), sequence (P50250 whole entry): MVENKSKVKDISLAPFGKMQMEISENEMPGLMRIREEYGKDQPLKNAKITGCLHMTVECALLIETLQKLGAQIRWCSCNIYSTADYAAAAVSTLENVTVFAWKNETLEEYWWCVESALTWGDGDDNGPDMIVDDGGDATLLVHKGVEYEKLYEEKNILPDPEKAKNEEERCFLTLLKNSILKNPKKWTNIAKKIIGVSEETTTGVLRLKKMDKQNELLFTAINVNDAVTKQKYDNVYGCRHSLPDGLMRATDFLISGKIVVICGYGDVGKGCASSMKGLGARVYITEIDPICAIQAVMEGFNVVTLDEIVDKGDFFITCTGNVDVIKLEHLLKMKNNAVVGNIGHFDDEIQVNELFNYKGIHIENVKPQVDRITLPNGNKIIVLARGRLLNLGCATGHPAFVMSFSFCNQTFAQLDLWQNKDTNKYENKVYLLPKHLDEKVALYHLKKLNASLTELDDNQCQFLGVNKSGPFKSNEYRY
SMILES,IC50 (Adenosylhomocysteinase [1]) [µM],Ki (Adenosylhomocysteinase [1]) [µM],EC50 (Plasmodium falciparum) [µM],IC50 (Adenosylhomocysteinase [2]) [µM],Ki (Adenosylhomocysteinase [2]) [µM],EC50 (FM3A) [µM]
Nc1ncnc2c1ncn2[C@@H]1C[C@H](O)[C@@H](O)[C@H]1O [NORARISTEROMYCIN],1.1,0.16,7.4,3.1,0.18,0.072
Nc1nc(F)nc2c1ncn2[C@@H]1C[C@H](O)[C@@H](O)[C@H]1O,63,7.9,7.4,13,0.48,7.2
